Values joined by “and” are separate entries in the source; they are usually repeats but may differ in a detail not shown here. Equal entries are not always repeated. Where two headings read alike, the source gives them in different places.
What was measured:
[1] = target: yeast mitochondrial ATP synthase (Saccharomyces cerevisiae, UniProt P00854+P61829); assay: biochemical; conditions: for Cyanide sensitive: 60 min
yeast F1Fo ATP synthase = yeast F1Fo ATP synthase (Saccharomyces cerevisiae, UniProt P00854+P61829); assay: biochemical; conditions: for ATP hydrolysis activity, Exp 1-3: upper block, head prints SMP, listed as Og-A
[2] = target: yeast mitochondrial ATP synthase (yeast SMP) (Saccharomyces cerevisiae, UniProt P00854+P61829); assay: biochemical; conditions: for ATP hydrolysis activity, Exp 1-3: SMP, lower block, listed as Og-A
human ATP synthase = human ATP synthase (Homo sapiens, UniProt P00846+P05496); assay: biochemical; assay type: biochemical
[3] = target: yeast mitochondrial ATP synthase (Saccharomyces cerevisiae, UniProt P61829); assay: Uncoupling of the yeast mitochondrial ATP synthase; assay type: biochemical; conditions: high concentrations
[4] = Oligomycin-A 0.05 μM, cyanide sensitive, yeast frozen mito
[5] = Oligomycin-A 0.6 μM, cyanide sensitive, yeast frozen mito
[6] = 1 ug/ml Oligomycin, […], frozen human mito
[7] = read-out: % activity, cyanide sensitive ATP synthesis

Q: How did the remaining activity at 0.0005 µM ([1]; Oligomycin-A 0.0005 μM, cyanide sensitive, yeast frozen mito) turn out when `CC[C@@H]1/C=C/C=C/C[C@H](C)[C@@H](O)[C@](C)(O)C(=O)[C@H](C)[C@@H](O)[C@H](C)C(=O)[C@H](C)[C@@H](O)[C@H](C)/C=C/C(=O)O[C@H]2[C@@H](C)[C@@H](CC1)O[C@@]1(CC[C@@H](C)[C@@H](C[C@H](C)O)O1)[C@@H]2C` [Oligomycin A] was run?
A: The remaining activity at 0.0005 µM was 110%.

Q: And the remaining activity at 0.005 µM ([1]; Oligomycin-A 0.005 μM, cyanide sensitive, yeast frozen mito)?
A: The remaining activity at 0.005 µM was 101%.

Q: And the Cyanide sensitive ([1]; Oligomycin-A 0.01 μM, yeast frozen mito)?
A: Its Cyanide sensitive is 21.2843 nmol/min/mg and 38.526 nmol/min/mg and 37.46 nmol/min/mg.

Q: And the inhibition at 0.05 µM [1, 4]?
A: Its inhibition at 0.05 µM is 16.9%.

Q: And the remaining activity at 0.05 µM [1, 4]?
A: Its remaining activity at 0.05 µM is 83.1%.

Q: And the Cyanide sensitive ([1]; Oligomycin-A 0.05 μM, yeast frozen mito)?
A: Its Cyanide sensitive is 16.4622 nmol/min/mg and 31.3703 nmol/min/mg.

Q: And the Cyanide sensitive ([1]; Oligomycin-A 0.08 μM, yeast frozen mito)?
A: Its Cyanide sensitive is 15.1607 nmol/min/mg and 21.1456 nmol/min/mg and 29.9684 nmol/min/mg.

Q: What about the Cyanide sensitive ([1]; Oligomycin-A 0.2 μM, yeast frozen mito) of the same compound?
A: The Cyanide sensitive was 6.587 nmol/min/mg and 5.248 nmol/min/mg and 9.417 nmol/min/mg.

Q: And the inhibition at 0.6 µM [1, 5]?
A: The inhibition at 0.6 µM was 95.6%.

Q: And the remaining activity at 0.6 µM [1, 5]?
A: Its remaining activity at 0.6 µM is 4.43%.

Q: And the Cyanide sensitive ([1]; Oligomycin-A 0.6 μM, yeast frozen mito)?
A: Its Cyanide sensitive is 0.8771 nmol/min/mg and 1.272 nmol/min/mg and 1.435 nmol/min/mg.

Q: And the inhibition at 1 µM ([1]; Oligomycin-A 1 μM, cyanide sensitive, yeast frozen mito, read-out: % inhibition)?
A: The inhibition at 1 µM was 100%.

Q: And the inhibition at 2 µM ([1]; Oligomycin-A 2 μM, cyanide sensitive, yeast frozen mito)?
A: Its inhibition at 2 µM is 100%.

Q: What about the IC50 ([1]; n = 3, read-out: IC50 ± SEM, ATP synthesis, yeast mitochondria) of the same compound?
A: Its IC50 is 100 ± 8 nM.

Q: And the inhibition at 1 µM ([1]; read-out: inhibition of cyanide sensitive ATP synthesis, yeast mitochondria)?
A: The inhibition at 1 µM was 98%.

Q: What about the “inhibition of ATP hydrolysis by yeast F1Fo (extent)” value (yeast F1Fo ATP synthase; F1Fo in bicelles, maximal) of the same compound?
A: Its value is 85%.

Q: And the IC50 (yeast F1Fo ATP synthase; F1Fo in bicelles, n = 3, read-out: IC50 ± SEM, ATP hydrolysis, purified yeast F1Fo)?
A: Its IC50 is 107 ± 1.1 nM.

Q: What about the IC50 (yeast F1Fo ATP synthase; F1Fo in bicelles, read-out: IC50, ATP hydrolysis, purified yeast F1Fo) of the same compound?
A: Its IC50 is roughly 100 nM.

Q: And the EC50 (yeast F1Fo ATP synthase; reconstituted in bicelles, n = 3, read-out: EC50, inhibition of the ATPase activity of purified yeast ATP synthase)?
A: The EC50 was 107 ± 1.1 nM.

Q: And the “ATP hydrolysis activity, Exp 1-3” value (yeast F1Fo ATP synthase; Og-A 0.0101128 uM)?
A: Its value is 0.9127 and 0.9068 and 0.9174.

Q: And the “ATP hydrolysis activity, Exp 1-3” value (yeast F1Fo ATP synthase; Og-A 0.0505638 uM)?
A: Its value is 0.7469 and 0.6678 and 0.6555.

Q: And the “ATP hydrolysis activity, Exp 1-3” value (yeast F1Fo ATP synthase; Og-A 0.252819 uM)?
A: Its value is 0.4366 and 0.4305 and 0.5.

Q: What about the “ATP hydrolysis activity, Exp 1-3” value (yeast F1Fo ATP synthase; Og-A 1.26409 uM) of the same compound?
A: The value was 0.3568 and 0.3661 and 0.3907.

Q: And the “ATP hydrolysis activity, Exp 1-3” value (yeast F1Fo ATP synthase; Og-A 6.32047 uM)?
A: The value was 0.2269 and 0.2038 and 0.2221.

Q: What about the “ATP hydrolysis activity, Exp 1-3” value (yeast F1Fo ATP synthase; Og-A 15.8012 uM) of the same compound?
A: Its value is 0.2056 and 0.2009 and 0.2105.

Q: What about the “ATP hydrolysis activity, Exp 1-3” value (yeast F1Fo ATP synthase; Og-A 31.6024 uM) of the same compound?
A: The value was 0.2364 and 0.1839 and 0.1796.

Q: What about the “ATP hydrolysis activity, Exp 1-3” value ([2]; Og-A 0.0101 uM) of the same compound?
A: The value was 0.8851 and 0.8864 and 0.89.

Q: And the “ATP hydrolysis activity, Exp 1-3” value ([2]; Og-A 0.0506 uM)?
A: The value was 0.8632 and 0.8483 and 0.878.

Q: What about the “ATP hydrolysis activity, Exp 1-3” value ([2]; Og-A 0.2528 uM) of the same compound?
A: Its value is 0.7765 and 0.7817 and 0.7989.

Q: What about the “ATP hydrolysis activity, Exp 1-3” value ([2]; Og-A 0.632 uM) of the same compound?
A: Its value is 0.6228 and 0.6613 and 0.6108.

Q: What about the “ATP hydrolysis activity, Exp 1-3” value ([2]; Og-A 1.2641 uM) of the same compound?
A: The value was 0.4529 and 0.4416 and 0.4356.

Q: What about the “ATP hydrolysis activity, Exp 1-3” value ([2]; Og-A 6.3205 uM) of the same compound?
A: Its value is 0.1135 and 0.1053 and 0.1112.

Q: And the “ATP hydrolysis activity, Exp 1-3” value ([2]; Og-A 15.8012 uM)?
A: The value was 0.0859 and 0.0937 and 0.0705.

Q: And the “ATP hydrolysis activity, Exp 1-3” value ([2]; Og-A 31.6024 uM)?
A: Its value is 0.097 and 0.0697 and 0.0822.

Q: What about the IC50 ([2]; n = 3, read-out: IC50 ± SEM, ATP hydrolysis, yeast SMP) of the same compound?
A: The IC50 was ~1100 nM and 1100 nM.

Q: And the “extent of inhibition of ATP synthesis of the human enzyme” value (human ATP synthase)?
A: The value was “nearly completely”.

Q: What about the “% activity” value (human ATP synthase; [6]) of the same compound?
A: The value was 19.1774%.

Q: And the “% inhibition” value (human ATP synthase; [6])?
A: The value was 80.8226%.

Q: What about the “ATP produced, nmol/min/mg” value (human ATP synthase; [6]) of the same compound?
A: Its value is 1.61 nmol/min/mg.

Q: And the “ATP produced, pmol/min/mg” value (human ATP synthase; [6])?
A: The value was 1614.78 pmol/min/mg.

Q: And the activity at 1 µg/mL (human ATP synthase; [6])?
A: The activity at 1 µg/mL was 19.2%.

Q: And the inhibition at 1 µg/mL (human ATP synthase; [6])?
A: The inhibition at 1 µg/mL was 80.8%.

Q: And the IC50 (human ATP synthase; IC50 ± SEM, ATP synthesis, human mitoplasts)?
A: The IC50 was 5.4 ± 0.6 nM.

Q: What about the remaining activity at 0.001 µM (human ATP synthase; [7]) of the same compound?
A: The remaining activity at 0.001 µM was 70.9%.

Q: And the remaining activity at 0.007 µM (human ATP synthase; [7])?
A: Its remaining activity at 0.007 µM is 34.6%.

Q: And the remaining activity at 0.01 µM (human ATP synthase; [7])?
A: The remaining activity at 0.01 µM was 18.4%.

Q: And the inhibition at 1.25 µM (human ATP synthase; read-out: inhibition of cyanide sensitive ATP synthesis, human mitoplasts)?
A: Its inhibition at 1.25 µM is 98%.

Q: With venturicidin as the compound, how does the “uncoupling of the yeast mitochondrial ATP synthase” value [3] read?
A: Its value is “uncouples”.

Reference: article PMC7438494 (Communications Biology, 2020)
